Molecules are shown by their SMILES.

ROCK2, sequence (O75116 whole entry, species assumed): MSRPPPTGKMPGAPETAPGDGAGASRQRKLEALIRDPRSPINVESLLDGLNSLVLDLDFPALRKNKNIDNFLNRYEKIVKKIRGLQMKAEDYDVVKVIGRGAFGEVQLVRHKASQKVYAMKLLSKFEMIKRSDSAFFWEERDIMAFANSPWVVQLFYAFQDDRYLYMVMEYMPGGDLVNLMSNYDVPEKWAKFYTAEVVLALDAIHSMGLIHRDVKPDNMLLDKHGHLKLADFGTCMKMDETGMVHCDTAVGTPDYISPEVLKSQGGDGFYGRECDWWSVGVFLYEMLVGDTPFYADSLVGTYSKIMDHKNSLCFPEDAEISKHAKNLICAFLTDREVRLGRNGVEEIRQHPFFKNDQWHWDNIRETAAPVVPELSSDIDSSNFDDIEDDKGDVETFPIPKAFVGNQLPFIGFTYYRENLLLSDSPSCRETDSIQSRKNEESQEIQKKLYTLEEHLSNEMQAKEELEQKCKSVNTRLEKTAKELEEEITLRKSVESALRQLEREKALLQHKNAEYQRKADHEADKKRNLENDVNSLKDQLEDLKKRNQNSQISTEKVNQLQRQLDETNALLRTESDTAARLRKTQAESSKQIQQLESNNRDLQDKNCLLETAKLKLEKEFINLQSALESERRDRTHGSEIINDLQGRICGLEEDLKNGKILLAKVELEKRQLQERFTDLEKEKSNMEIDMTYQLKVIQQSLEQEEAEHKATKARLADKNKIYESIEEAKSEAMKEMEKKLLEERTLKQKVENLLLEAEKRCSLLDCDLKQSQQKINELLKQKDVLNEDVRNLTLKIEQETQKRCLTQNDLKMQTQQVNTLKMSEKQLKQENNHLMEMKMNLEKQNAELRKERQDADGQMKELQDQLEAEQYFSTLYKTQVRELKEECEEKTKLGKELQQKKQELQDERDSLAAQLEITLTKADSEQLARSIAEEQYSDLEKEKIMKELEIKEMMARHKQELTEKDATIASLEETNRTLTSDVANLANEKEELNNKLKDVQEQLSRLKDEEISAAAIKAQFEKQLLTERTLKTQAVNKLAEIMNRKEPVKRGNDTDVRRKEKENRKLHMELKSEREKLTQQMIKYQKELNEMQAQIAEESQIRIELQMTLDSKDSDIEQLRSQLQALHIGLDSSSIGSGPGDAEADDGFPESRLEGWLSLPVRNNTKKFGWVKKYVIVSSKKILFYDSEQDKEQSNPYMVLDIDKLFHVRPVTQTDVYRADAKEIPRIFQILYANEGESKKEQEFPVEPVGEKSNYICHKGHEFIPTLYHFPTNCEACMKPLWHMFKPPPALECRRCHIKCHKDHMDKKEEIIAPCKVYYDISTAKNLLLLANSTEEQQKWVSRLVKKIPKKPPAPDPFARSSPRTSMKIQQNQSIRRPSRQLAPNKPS

This test concerns the target ROCK2 (Homo sapiens (Human), UniProt O75116). Kind of test: ROCK assay (LABCHIP 3000 peptide phosphorylation assay). Format: biochemical. The settings on record: 5 μM ATP, 1.5 μM peptide substrate, dose-response. Summed up:
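Rho kinase variants in 20 mM HEPES pH 7.5, 20 mM MgCl2, 0.015% Brij-35, 4 mM DTT, 5 μM ATP, 1.5 μM FITC-AHA-AKRRRLSSLRA-OH peptide; DMSO <2%. EDTA-stopped; phosphorylated/non-phosphorylated peptide separated by microfluidic LabChip readout. Dose-response inhibition curve-fitted to give IC50.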
In general, IC50 refers to the concentration at which inhibition is half-maximal. A high value points to weaker potency. For the compound `NC(=O)c1cccnc1Oc1ccc(CC(=O)Nc2nc3ccccc3n2CC2CC2)cc1Cl` [Example 007, 2-(2-chloro-4-(2-((1-(cyclopropylmethyl)-1H-benzo[d]imidazol-2-yl)amino)-2-oxoethyl)phenoxy)nicotinamide], it took 14 nM to reach half-maximal inhibition (IC50). In turn, `NC(=O)c1cccnc1Oc1ccc(CC(=O)Nc2ccn(-c3ccc(C(F)(F)F)cn3)n2)cc1F` [Example 100, 2-(2-fluoro-4-(2-oxo-2-((1-(5-(trifluoromethyl)pyridin-2-yl)-1H-pyrazol-3-yl)amino)ethyl)phe-noxy)nicotinamide] came in with an IC50 of 191 nM. Consider `CC(C)(O)COc1ccc2c(c1)N(C(=O)Cc1ccc(Oc3ncccc3C(N)=O)c(F)c1)CC2` [Example 114, 2-(2-fluoro-4-(2-(6-(2-hydroxy-2-methylpropoxy)indolin-1-yl)-2-oxoethyl)phenoxy)nicotinamide], for which 162 nM corresponded to half-maximal inhibition (IC50). The IC50 values of the last two compounds are within 1.5-fold of each other. Then `Cc1sc(NC(=O)Cc2ccc(Oc3ncccc3C(N)=O)c(F)c2)nc1-c1ccc(=O)n(C)c1` [Example 020, 2-(2-fluoro-4-(2-((5-methyl-4-(1-methyl-6-oxo-1,6-dihydropyridin-3-yl)thiazol-2-yl)amino)-2-oxoethyl)phenoxy)nicotinamide], with 106 nM.

Turning to `NC(=O)c1cccnc1Oc1ccc(CC(=O)Nc2nc3ccccc3s2)cc1F` [Example 015, 2-(4-(2-(benzo[d]thiazol-2-ylamino)-2-oxoethyl)-2-fluorophenoxy)nicotinamide], the IC50 was found to be 31 nM. In the case of `NC(=O)c1cccnc1Oc1ccc(CC(=O)Nc2nc3ccc(F)cc3n2CC(F)F)cc1F` [Example 166, 2-(4-(2-((1-(2,2-difluoroethyl)-6-fluoro-1H-benzo[d]-imidazol-2-yl)-amino)-2-oxo-ethyl)-2-fluoro-phenoxy)nicotin-amide] it was 24 nM; in that of `Cc1cccc2nc(NC(=O)Cc3ccc(Oc4ncccc4C(N)=O)c(F)c3)nn12` [Example 096, 2-(2-fluoro-4-(2-((5-methyl-[1,2,4]triazolo[1,5-a]pyridin-2-yl)amino)-2-oxoethyl)phenoxy) nicotinamide], 110 nM. In the case of `COc1ncc(-c2nc(NC(=O)Cc3ccc(Oc4ncccc4C(N)=O)c(F)c3)sc2C)cn1` [Example 040, 2-(2-fluoro-4-(2-((4-(2-methoxypyrimidin-5-yl)-5-methylthiazol-2-yl)amino)-2-oxoethyl)phenoxy)nico-tinamide] it was 99 nM; in that of `COC(=O)c1ccc2sc(NC(=O)Cc3ccc(Oc4ncccc4C(N)=O)cc3)nc2c1` [Example 065, methyl 2-(2-(4-((3-carbamoylpyridin-2-yl)oxy)phenyl)acet-amido)benzo[d]thi-azole-5-carboxylate], 109 nM. Then `NC(=O)c1cccnc1Oc1ccc(CC(=O)Nc2nc3cc(C(=O)c4ccccc4)ccc3[nH]2)cc1` [Example 072, 2-(4-(2-((5-benzoyl-1H-benzo[d]imidazol-2-yl)amino)-2-oxoethyl)phenoxy) nicotinamide], with 147 nM. Consider `NC(=O)c1cccnc1Oc1ccc(CC(=O)Nc2nc3ccc(C(F)(F)F)cn3n2)cc1F` [Example 129, 2-(2-fluoro-4-(2-oxo-2-((6-(trifluoromethyl)-[1,2,4]triazolo-[1,5-a]pyridin-2-yl)amino)ethyl)-phenoxy)nicotin-amide], for which the IC50 stood at 69 nM. `COc1ccc2sc(NC(=O)Cc3ccc(Oc4ncccc4C(N)=O)cc3)nc2c1` [Example 002, 2-(4-(2-((5-methoxybenzo[d]thiazol-2-yl)amino)-2-oxoethyl)phenoxy) Nicotinamide] displayed an IC50 of 35 nM.

In the case of `NC(=O)c1cccnc1Oc1ccc(CC(=O)Nc2nc3c(F)cccc3n2CC2CC2)cc1F` [Example 161, 2-(4-(2-((1-(cyclopropyl-methyl)-4-fluoro-1H-benzo[d]-imidazol-2-yl)-amino)-2-oxoethyl)-2-fluorophenoxy)-nicotinamide], it took 16 nM to reach half-maximal inhibition (IC50). Regarding `Cc1nccc(-c2nc(NC(=O)Cc3ccc(Oc4ncccc4C(N)=O)c(F)c3)sc2C)n1` [Example 089, 2-(2-fluoro-4-(2-((5-methyl-4-(2-methylpyrimidin-4-yl)thiazol-2-yl)amino)-2-oxoethyl)phenoxy) nicotinamide], the 50% inhibitory concentration (IC50) came out at 14 nM. Consider `NC(=O)c1cccnc1Oc1ccc(CC(=O)Nc2nc3ccc(F)cc3n2CC2CC2)cc1F` [Example 168, 2-(4-(2-((1-(cyclopropyl-methyl)-6-fluoro-1H-benzo[d]-imidazol-2-yl)-amino)-2-oxo-ethyl)-2-fluoro-phenoxy)nicotin-amide], for which the IC50 is 18 nM. The compound `COc1ccc2c(c1)nc(NC(=O)Cc1ccc(Oc3ncccc3C(N)=O)c(F)c1)n2CC1CC1` [Example 162, 2-(4-(2-((1-(cyclopropyl-methyl)-5-methoxy-1H-benzo[d]-imidazol-2-yl)-amino)-2-oxoethyl)-2-fluorophenoxy)-nicotinamide] had an IC50 of 47 nM. Turning to `N#Cc1cccc(-c2csc(NC(=O)Cc3ccc(Oc4ncccc4C(N)=O)cc3)n2)c1` [Example 063, 2-(4-(2-((4-(3-cyanophenyl)thia-zol-2-yl)amino)-2-oxoethyl)phenoxy) nicotinamide], the IC50 came out at 339 nM. In the case of `CP(C)(=O)c1cccc2nc(NC(=O)Cc3ccc(Oc4ncccc4C(N)=O)c(F)c3)nn12` [Example 147] it was 1390 nM. The compound `Cc1sc(NC(=O)Cc2ccc(Oc3ncccc3C(N)=O)c(F)c2)nc1-c1ccccn1` [Example 087, 2-(2-fluoro-4-(2-((5-methyl-4-(pyridin-2-yl)thiazol-2-yl)amino)-2-oxoethyl)phenoxy) nicotinamide] registered an IC50 of 47 nM. `Cc1sc(NC(=O)Cc2ccc(Oc3ncccc3C(N)=O)c(F)c2)nc1-c1ccc(=O)n(C(F)F)c1` [Example 021, 2-(4-(2-((4-(1-(difluoromethyl)-6-oxo-1,6-dihydropyridin-3-yl)-5-methylthiazol-2-yl)amino)-2-oxoethyl)-2-fluorophenoxy)nicotinamide]: the IC50 was found to be 53 nM. The IC50 values of the last two compounds are within 1.5-fold of each other. Then `NC(=O)c1cccnc1Oc1ccc(CC(=O)Nc2nc3cccc(C(F)(F)F)n3n2)cc1F` [Example 126, 2-(2-fluoro-4-(2-oxo-2-((5-(trifluoro-methyl)-[1,2,4]-triazolo[1,5-a]-pyridin-2-yl)amino)-ethyl)phenoxy)-nicotinamide], with 82 nM; and `Cc1sc(NC(=O)Cc2ccc(Oc3ncccc3C(N)=O)c(F)c2)nc1-c1cccc(C#N)n1` [Example 045, 2-(4-(2-((4-(6-cyanopyridin-2-yl)-5-methylthiazol-2-yl)amino)-2-oxoethyl)-2-fluorophenoxy)nicotin-amide], with 21 nM; and `NC(=O)c1cccnc1Oc1ccc(CC(=O)Nc2nc3cc(-c4c[nH]nc4C(F)(F)F)ccc3s2)cc1F` [Example 032, 2-(2-fluoro-4-(2-oxo-2-((5-(3-(trifluoromethyl)-1H-pyrazol-4-yl)benzo[d]thiazol-2-yl)amino)ethyl)phenoxy) nicotinamide], with 89 nM. As for `NC(=O)c1cccnc1Oc1ccc(CC(=O)Nc2nc3ccc(OCc4ccccc4)cc3n2CC2CC2)cc1F` [Example 170, 2-(4-(2-((6-(benzyloxy)-1-(cyclo-propylmethyl)-1H-benzo[d]-imidazol-2-yl)-amino)-2-oxo-ethyl)-2-fluoro-phenoxy)nicotin-amide], the IC50 turned out to be 31 nM.

(Values after patent US11306081B2, “Phenylacetamides as inhibitors of rock” (BRISTOL-MYERS SQUIBB COMPANY, priority 2017, dated 2022).)
